{"source": "paper PMC3040889", "about": "“Synthesis and Biological Evaluation of Delavayin-C” (Indian Journal of Pharmaceutical Sciences, 2008)", "type_in_all_cases": "cell-based", "key": {"Staphylococcus aureus [1]": {"tested_on": "Staphylococcus aureus", "test": "microbe, parasite or virus in culture", "details": "disc diffusion, 50 μg/ml", "experimental": "(§1) The synthesized cyclic heptapeptide was screened in vitro for its antibacterial and antifungal activity by using disc diffusion method and tube dilution technique. The antibacterial activity was determined against four bacterial species (B. subtilis, S. aureus, E. coli and P. aeruginosa) and antifungal activity against Candida albican. In the disc diffusion method, the activity studies were carried out according to modified Kirby-Bauer method. Benzyl penicillin and fluconazole were used as standards against bacterial and fungal strains, respectively at a concentration of 50 μg/ml. Nutrient broth and Sabourds agar were used as a medium and dimethylformamide (DMF) was used as a solvent control for carrying out the activity. After preparation of the disc, allowed to stand for 24 h at 37°. The zone of inhibition, observed around the disks after incubation, was measured."}, "Psuedomonas aeruginosa [2]": {"tested_on": "Psuedomonas aeruginosa", "test": "microbe, parasite or virus in culture", "details": "disc diffusion, 50 μg/ml", "experimental": "as §1"}, "Escherichia coli [3]": {"tested_on": "Escherichia coli", "test": "microbe, parasite or virus in culture", "details": "disc diffusion, 50 μg/ml", "experimental": "as §1"}, "Candida albicans [4]": {"tested_on": "Candida albicans", "test": "microbe, parasite or virus in culture", "details": "disc diffusion, 50 μg/ml", "experimental": "as §1"}, "Bacillus subtilis [5]": {"tested_on": "Bacillus subtilis", "test": "microbe, parasite or virus in culture", "details": "disc diffusion, 50 μg/ml", "experimental": "as §1"}, "Staphylococcus aureus [6]": {"tested_on": "Staphylococcus aureus", "test": "tube dilution technique for minimum inhibitory concentration", "parameters": "key: (+) indicates presence of growth (no activity); –: absence of growth", "details": "S. auereus, nutrient broth, 37° for 24 h, turbidity", "experimental": "(§2) Compound inhibiting growth of microorganisms was further tested for minimum inhibitory concentration (MIC). A solution of the compound was prepared in DMF and a series of doubling dilutions prepared with sterile pipettes. To each of a series of sterile stoppered test tubes, a standard volume of nutrient broth medium was added. A control tube containing no antimicrobial agent was included. The inoculum consisting of an overnight broth culture of microorganisms was added to separate tubes. The tubes were incubated at 37° for 24 h and examined for turbidity. The tube with highest dilution showing no turbidity was the one containing compound with MIC."}, "Psuedomonas aeruginosa [7]": {"tested_on": "Psuedomonas aeruginosa", "test": "tube dilution technique for minimum inhibitory concentration", "parameters": "key: (+) indicates presence of growth (no activity); –: absence of growth", "details": "P. aeruginosa, nutrient broth, 37° for 24 h, turbidity", "experimental": "as §2"}, "Escherichia coli [8]": {"tested_on": "Escherichia coli", "test": "tube dilution technique for minimum inhibitory concentration", "parameters": "key: (+) indicates presence of growth (no activity); –: absence of growth", "details": "E. coli, nutrient broth, 37° for 24 h, turbidity", "experimental": "as §2"}, "Candida albicans [9]": {"tested_on": "Candida albicans", "test": "tube dilution technique for minimum inhibitory concentration", "parameters": "key: (+) indicates presence of growth (no activity); –: absence of growth", "details": "C. albicans, broth medium, 37° for 24 h, turbidity", "experimental": "as §2"}, "Bacillus subtilis [10]": {"tested_on": "Bacillus subtilis", "test": "tube dilution technique for minimum inhibitory concentration", "parameters": "key: (+) indicates presence of growth (no activity); –: absence of growth", "details": "B. subtilis, nutrient broth, 37° for 24 h, turbidity", "experimental": "as §2"}, "[11]": {"details": "24 h at 37°, DMF solvent control"}}, "note": "Residues, ends and D or L forms follow the SMILES beside them.", "data": [{"compound": "CC1(C)S[C@@H]2[C@H](NC(=O)Cc3ccccc3)C(=O)N2[C@H]1C(=O)O", "note": "[Benzyl Penicillin, Benzyl penicillin, reference compound]", "values": [{"measurement": "zone of inhibition at 50 µg/mL", "setting": "Staphylococcus aureus [1]; Staphylococcus aureus, 24 h at 37°, DMF solvent control, read-out: Diameter of zone of inhibition, S. auereus", "value": 25, "unit": "mm"}, {"measurement": "zone of inhibition at 50 µg/mL", "setting": "Psuedomonas aeruginosa [2]; Pseudomonas aeruginosa, 24 h at 37°, DMF solvent control, read-out: Diameter of zone of inhibition, P. aeruginosa", "value": 17, "unit": "mm"}, {"measurement": "zone of inhibition at 50 µg/mL", "setting": "Escherichia coli [3]; Escherichia coli, 24 h at 37°, DMF solvent control, read-out: Diameter of zone of inhibition, E. coli", "value": 16, "unit": "mm"}, {"measurement": "Diameter of zone of inhibition, C. albicans", "setting": "Candida albicans [4]; [11]", "value": "-"}, {"measurement": "zone of inhibition at 50 µg/mL", "setting": "Bacillus subtilis [5]; Bacillus subtilis, 24 h at 37°, DMF solvent control, read-out: Diameter of zone of inhibition, B. Subtilis", "value": 15, "unit": "mm"}]}, {"compound": "CC(C)[C@@H]1NC(=O)[C@@H]2CCCN2C(=O)[C@H](Cc2ccc(O)cc2)NC(=O)[C@H](Cc2ccc(O)cc2)NC(=O)[C@H](Cc2ccc(O)cc2)NC(=O)CNC(=O)[C@@H]2CCCN2C1=O", "note": "[Compound, delavayin-C, cyclo(gly-tyr-tyr-tyr-pro-val-pro)] (cyclo(GYYYPVP))", "values": [{"measurement": "Presence or absence of growth", "setting": "Staphylococcus aureus [6]; 1.56 μg/ml", "value": "+"}, {"measurement": "Presence or absence of growth", "setting": "Staphylococcus aureus [6]; 3.13 μg/ml", "value": "+"}, {"measurement": "Presence or absence of growth", "setting": "Staphylococcus aureus [6]; 6.25 μg/ml", "value": "+"}, {"measurement": "Presence or absence of growth", "setting": "Staphylococcus aureus [6]; 12.5 μg/ml", "value": "+"}, {"measurement": "Presence or absence of growth", "setting": "Staphylococcus aureus [6]; 25 μg/ml", "value": "+"}, {"measurement": "Presence or absence of growth", "setting": "Staphylococcus aureus [6]; 50 μg/ml", "value": "+"}, {"measurement": "Presence or absence of growth", "setting": "Psuedomonas aeruginosa [7]; 1.56 μg/ml", "value": "+"}, {"measurement": "Presence or absence of growth", "setting": "Psuedomonas aeruginosa [7]; 3.13 μg/ml", "value": "+"}, {"measurement": "Presence or absence of growth", "setting": "Psuedomonas aeruginosa [7]; 6.25 μg/ml", "value": "+"}, {"measurement": "Presence or absence of growth", "setting": "Psuedomonas aeruginosa [7]; 12.5 μg/ml", "value": "+"}, {"measurement": "Presence or absence of growth", "setting": "Psuedomonas aeruginosa [7]; 25 μg/ml", "value": "+"}, {"measurement": "Presence or absence of growth", "setting": "Psuedomonas aeruginosa [7]; 50 μg/ml", "value": "+"}, {"measurement": "Presence or absence of growth", "setting": "Psuedomonas aeruginosa [7]; 100 μg/ml", "value": "–"}, {"measurement": "Presence or absence of growth", "setting": "Escherichia coli [8]; 1.56 μg/ml", "value": "+"}, {"measurement": "Presence or absence of growth", "setting": "Escherichia coli [8]; 3.13 μg/ml", "value": "+"}, {"measurement": "Presence or absence of growth", "setting": "Escherichia coli [8]; 6.25 μg/ml", "value": "+"}, {"measurement": "Presence or absence of growth", "setting": "Escherichia coli [8]; 12.5 μg/ml", "value": "+"}, {"measurement": "Presence or absence of growth", "setting": "Escherichia coli [8]; 25 μg/ml", "value": "+"}, {"measurement": "Presence or absence of growth", "setting": "Escherichia coli [8]; 50 μg/ml", "value": "+"}, {"measurement": "Presence or absence of growth", "setting": "Escherichia coli [8]; 100 μg/ml", "value": "–"}, {"measurement": "Presence or absence of growth", "setting": "Candida albicans [9]; 1.56 μg/ml", "value": "+"}, {"measurement": "Presence or absence of growth", "setting": "Candida albicans [9]; 3.13 μg/ml", "value": "+"}, {"measurement": "Presence or absence of growth", "setting": "Candida albicans [9]; 6.25 μg/ml", "value": "+"}, {"measurement": "Presence or absence of growth", "setting": "Candida albicans [9]; 12.5 μg/ml", "value": "+"}, {"measurement": "Presence or absence of growth", "setting": "Candida albicans [9]; 25 μg/ml", "value": "+"}, {"measurement": "Presence or absence of growth", "setting": "Candida albicans [9]; 50 μg/ml", "value": "–"}, {"measurement": "Presence or absence of growth", "setting": "Candida albicans [9]; 100 μg/ml", "value": "–"}, {"measurement": "Presence or absence of growth", "setting": "Bacillus subtilis [10]; 1.56 μg/ml", "value": "+"}, {"measurement": "Presence or absence of growth", "setting": "Bacillus subtilis [10]; 3.13 μg/ml", "value": "+"}, {"measurement": "Presence or absence of growth", "setting": "Bacillus subtilis [10]; 6.25 μg/ml", "value": "+"}, {"measurement": "Presence or absence of growth", "setting": "Bacillus subtilis [10]; 12.5 μg/ml", "value": "+"}, {"measurement": "Presence or absence of growth", "setting": "Bacillus subtilis [10]; 25 μg/ml", "value": "+"}, {"measurement": "Presence or absence of growth", "setting": "Bacillus subtilis [10]; 50 μg/ml", "value": "–"}, {"measurement": "Presence or absence of growth", "setting": "Bacillus subtilis [10]; 100 μg/ml", "value": "–"}, {"measurement": "activity against S. aureus when compared with standard drug benzyl penicillin (in words)", "setting": "Staphylococcus aureus [1]", "value": "moderate activity"}, {"measurement": "Diameter of zone of inhibition, S. auereus", "setting": "Staphylococcus aureus [1]; [11]", "value": 21, "unit": "mm"}, {"measurement": "activity against P. aeruginosa when compared with standard drug benzyl penicillin (in words)", "setting": "Psuedomonas aeruginosa [2]", "value": "less activity"}, {"measurement": "Diameter of zone of inhibition, P. aeruginosa", "setting": "Psuedomonas aeruginosa [2]; [11]", "value": 11, "unit": "mm"}, {"measurement": "activity against E. coli when compared with standard drug benzyl penicillin (in words)", "setting": "Escherichia coli [3]", "value": "less activity"}, {"measurement": "Diameter of zone of inhibition, E. coli", "setting": "Escherichia coli [3]; [11]", "value": 10, "unit": "mm"}, {"measurement": "inhibition of growth against Candida albicans (in words)", "setting": "Candida albicans [4]", "value": "moderate inhibition of growth"}, {"measurement": "Diameter of zone of inhibition, C. albicans", "setting": "Candida albicans [4]; [11]", "value": 18, "unit": "mm"}, {"measurement": "activity against B. subtilis when compared with standard drug benzyl penicillin (in words)", "setting": "Bacillus subtilis [5]", "value": "moderate activity"}, {"measurement": "Diameter of zone of inhibition, B. Subtilis", "setting": "Bacillus subtilis [5]; [11]", "value": 15, "unit": "mm"}]}, {"compound": "OC(Cn1cncn1)(Cn1cncn1)c1ccc(F)cc1F", "note": "[Fluconazole, fluconazole, reference compound]", "values": [{"measurement": "Diameter of zone of inhibition, S. auereus", "setting": "Staphylococcus aureus [1]; [11]", "value": "-"}, {"measurement": "Diameter of zone of inhibition, P. aeruginosa", "setting": "Psuedomonas aeruginosa [2]; [11]", "value": "-"}, {"measurement": "Diameter of zone of inhibition, E. coli", "setting": "Escherichia coli [3]; [11]", "value": "-"}, {"measurement": "zone of inhibition at 50 µg/mL", "setting": "Candida albicans [4]; Candida albicans, 24 h at 37°, DMF solvent control, read-out: Diameter of zone of inhibition, C. albicans", "value": 20, "unit": "mm"}, {"measurement": "Diameter of zone of inhibition, B. Subtilis", "setting": "Bacillus subtilis [5]; [11]", "value": "-"}]}]}
